Laboratory results reported in patent publication US20060134119A1, “Drugs containing galectin 9” (priority 2003, published 2006).

Assays:
BALL-1 = assay: Apoptosis analysis by PI method in BALL-1 cells; type: cell-based
Procedure: (§1) MOLT-4 (T cell), Jurkat (T cell), BALL-1 (B cell), THP-1 (acute monocytic leukemia derived cell), and HL60 (acute promyelotic leukemia derived cell) cells were obtained from American Type Culture Collection (ATCC). All the cell lines were maintained in an RPMI-1640 medium (Sigma, St. Louis, US) supplemented with 10% FCS in 5% Co2 at 37° C. Lactose (30 mM) was added to the culture medium to inhibit Gal-9 activity. The same concentration of sucrose was used as a control.
(§2) Cells that underwent apoptosis induction were centrifuged at 4° C. for 5 min at 1,000 rpm, and the cell pellet was resuspended in PBS (300 μL), and adjusted to a final concentration of 70% by gradually adding 100% cold ethanol (700 μL) to the suspended cells with vortexing. […] Stained cells were analyzed by flow cytometry (Sandstrom, K. et al., J Immunol Methods, 240: 55 (2000) and Zhang L. et al., Cancer Lett, 142: 129 (1999)) after removing aggregated cells through a nylon mesh and increasing the cell volume with PBS. […]
(§3) Apoptotic activity was measured by the PI method. […] Subsequently, incubation with PI leads to a reduction in the fluorescence intensity of apoptotic cells. Apoptosis was examined by the percentage of the cells wherein their fluorescence intensity was reduced. […]

HL-60 = assay: Apoptosis analysis by PI method in HL60 cells; type: cell-based
Procedure: as §1, §2, §3

HMC-1 = assay: Apoptosis analysis by PI method in HMC-1 cells; type: cell-based; settings: incubation with galectin-9 at least 48 hr or more
Procedure: (§4) Apoptotic activity was measured by the PI method. When cells are incubated with galectin-9, washed, then subjected to alcohol-fixation, and fragmented DNAs flow out of the cell. Subsequently, incubation with PI leads to a reduction in the fluorescence intensity of apoptotic cells. Apoptosis was examined by the percentage of the cells wherein their fluorescence intensity was reduced. […] This induction was at the same level as H2O2 (hydrogen peroxide solution) that was used as a positive control. In addition, the same results were obtained by another method for examining apoptosis, TUNEL assay.

CD4+ T cells = assay: Apoptosis induction in peripheral blood CD4+ T cells, resting or anti-CD3 Ab-activated; type: cell-based, human; settings: galectin (+), 1 μM rGal-9
Procedure: (§5) To prepare a well plate coated with anti-CD3 Ab, 24 well palates were incubated with TBS solution (pH 8.0) containing 3 μg/mL anti-CD3 Ab (Inmunotech, Marseille, France) per well at 4° C. overnight, and each well was washed with PBS after removing anti-CD3 Ab solution.
(§6) Mononuclear leukocyte fractions were isolated from heparinized blood using HISTOPAQUE (Registered trademark, SIGMA). CD4-Positive Isolation Kit (DYNAL, Oslo, Norway) was used for isolation of CD4+ T cells and Dynabeads M-450 CD8 (Registered trademark, DYNAL, Oslo, Norway) for isolation of CD8+ T cells, respectively, according to the manufacturer's instructions.
(§7) To activate T cells, CD4+ or CD8+ cells at 1×10^6 cells/mL in an RPMI-1640 medium containing 10% FCS were incubated on the plate coated with anti-CD3 Ab for 20 to 24 hr at 37° C. in a 5% CO2 incubator, and incubated with rGal-9 [(His)6-Gal-9(S)] at 37° C. in a 5% CO2 incubator. Then apoptosis assay was conducted as described in (c). That is, cells were incubated with 50 μg/mL PI (SIGMA) at 37° C. for 10 min in the dark. Stained cells were analyzed by flow cytometry (Sandstrom, K. et al., J Immunol Methods, 240: 55 (2000) and Zhang L. et al., Cancer Lett, 142: 129 (1999)).
(§8) Apoptosis assay was also conducted for non-activated (resting) T cells as described above after incubating them with rGal-9 [(His)6-Gal-9(S)] at 37° C. in a 5% Co2 incubator.
(§9) For comparison, galectin-1 and -3 treated cells were analyzed.
(§10) Next, apoptosis induction by Gal-9 in human peripheral blood T cells was examined. T cells were separated into CD4+ and CD8+ T cells followed by incubation in the presence or absence of anti-CD3 Ab. Resting T cells and anti-CD3 Ab-activated T cells were incubated with 1 μM rGal-9.

Jurkat = assay: Apoptosis analysis by PI method in Jurkat cells; type: cell-based
Procedure: as §1, §2, §3

MOLT-4 cells [1] = assay: Apoptosis analysis by PI method in MOLT-4 cells; type: cell-based, human
Procedure: as §1
Cells that underwent apoptosis induction were centrifuged at 4° C. for 5 min at 1,000 rpm, and the cell pellet was resuspended in PBS (300 μL), and adjusted to a final concentration of 70% by gradually adding 100% cold ethanol (700 μL) to the suspended cells with vortexing. Cells were fixed by incubation at 4° C. for 30 min, and centrifuged at 4° C. for 5 min at 1,000 rpm after adding PBS (1 mL), and the cell pellet was resuspended in PBS (440 μL). Cells were incubated with ribonuclease A (10 μL; the final concentration 50 μg/mL, Sigma, St. Louis, Mo., US) at 37° C. for 30 min, and with 2.5 mg/mL propidium iodide (4 μL; the final concentration of PI 20 μg/mL, Sigma) at 4° C. for 10 min in the dark. Stained cells were analyzed by flow cytometry (Sandstrom, K. et al., J Immunol Methods, 240: 55 (2000) and Zhang L. et al., Cancer Lett, 142: 129 (1999)) after removing aggregated cells through a nylon mesh and increasing the cell volume with PBS.
(3) Cultured Cell Lines Were Incubated With rGal-9 for the Appropriate Length of Time, 24 hr for Instance. Apoptosis Analysis was Conducted by the Above-Described PI Method (1).
as §4

MM-RU = assay: Induction of cell aggregation in MM-RU; type: cell-based, human; settings: for aggregation: FIG. 14
Procedure: Recombinant galectin-9 prepared via gene transfer into E. coli was added to MM-RU exogenously, and the efficacy of galectin-9 was then examined. As a result, galectin-9 induced aggregation of MM-RU at the concentration of 0.1 μM or higher. In addition, the galectin-9 efficacy was concentration-dependent, and significant between 0.3-1.0 μM.

CD8+ T cells = assay: Apoptosis induction in peripheral blood CD8+ T cells, resting or anti-CD3 Ab-activated; type: cell-based, human; settings: galectin (+), 1 μM rGal-9
Procedure: as §5, §6, §7, §8, §9, §10

MOLT-4 cells [2] = assay: Apoptosis analysis with Annexin V-PI in MOLT-4 cells; type: cell-based, human; settings: 1 μM Gal-9; FIG. 1B; control 13.2%
Procedure: MEBCYTO (registered trademark) Apoptosis kit (MBL, Nagoya, Japan) was used for apoptosis analysis with Annexin V-PI. Experiments were carried out according to the manufacturer's instruction as follows. Briefly, cells that underwent apoptosis induction (2×10^5 cells/sample) were washed with PBS, and resuspended in the binding buffer. After adding Annexin V-FITC and 5 μL of PI (final concentration 5 μg/mL) in the kit to the cell suspension, cells were incubated for 15 min at room temperature in the dark. Analysis was conducted using flow cytometry (EPICS XL-MCL, CouHer, Miami, Fla., US).

[3] = CD3 (+) cells activated on anti-CD3 Ab-coated plates
[4] = CD3 (−) untreated resting cells
[5] = recombinant galectin-9 added exogenously

In the case of “Galectin-9: Recombinant human galectin-9 expressed in E. coli and purified on lactose-agarose”, the “apoptosis induction, Gal9 (+)” value (BALL-1; BALL-1, incubation with galectin-9 at least 48 hr or more) was 26.0, the apoptosis induction (BALL-1; rGal-9 1 μM, 24 hr, FIG. 3) was “induced” and the “apoptosis induction, Gal9 (+)” value (HL-60; HL-60, incubation with galectin-9 at least 48 hr or more) was 64.6. For the same substance, the apoptosis induction (HL-60; rGal-9 1 μM, 24 hr, FIG. 3) was “induced”, the “apoptosis induction, Gal9 (+)” value (HMC-1) was 26.2 and the “apoptosis induction, CD4” value (CD4+ T cells; [3]) was 41.7. For the same substance, the “apoptosis induction, CD4” value (CD4+ T cells; [4]) was 10.8, the “apoptosis induction, Gal9 (+)” value (Jurkat; Jurkat, incubation with galectin-9 at least 48 hr or more) was 66.6 and the apoptosis induction (Jurkat; rGal-9 1 μM, 24 hr, FIG. 3) was “induced”. For the same substance, the “apoptosis induction, Gal9 (+)” value (MOLT-4 cells [1]; MOLT4, incubation with galectin-9 at least 48 hr or more) was 34.5, the “apoptosis induction, time and dose dependence” value (MOLT-4 cells [1]; PI method) was “time-dependent and dose-dependent” and the apoptosis induction (MOLT-4 cells [1]; rGal-9 1 μM, 24 hr, FIG. 3) was “induced”. For the same substance, the “PI-stained cells, which underwent apoptosis” value (MOLT-4 cells [1]; rGal-9 1 μM, PI method, FIG. 1A, PBS control 14.8%) was 34.5%, the aggregation (MM-RU; 2 hr after addition) was “aggregation was observed” and the aggregation (MM-RU; 12 hr after addition) was “more intensive aggregation”. For the same substance, the “concentration at which aggregation of MM-RU was induced” value (MM-RU; [5]) was ≥ 0.1 µM, the “concentration at which the efficacy was significant” value (MM-RU; [5]) was 0.3 to 1.0 µM and the “apoptosis induction, CD8” value (CD8+ T cells; [3]) was 25.7. For the same substance, the “apoptosis induction, CD8” value (CD8+ T cells; [4]) was 17.8 and the “cells that underwent apoptosis, detectable by Annexin V staining” value (MOLT-4 cells [2]) was 69.1%.
